Measurements as given in publication PMC9040635 (RSC Advances, 2021).

Experiments:
[1] = system: formalin-induced rat paw oedema; experiment: Formalin-induced hind rat paw oedema assay; format: in vivo; conditions: low dose 10 mg kg^−1 b.w, intraperitoneal, mean ± SEM n = 5
COX-1 = target: T1, COX-1 (Ovis aries, UniProt P05979); experiment: COX-1 inhibitory assay; format: biochemical; conditions: Cyclooxygenase-1; ΔGexp = −RT ln IC50, T = 300 K
T1 sequence (P05979 25-600): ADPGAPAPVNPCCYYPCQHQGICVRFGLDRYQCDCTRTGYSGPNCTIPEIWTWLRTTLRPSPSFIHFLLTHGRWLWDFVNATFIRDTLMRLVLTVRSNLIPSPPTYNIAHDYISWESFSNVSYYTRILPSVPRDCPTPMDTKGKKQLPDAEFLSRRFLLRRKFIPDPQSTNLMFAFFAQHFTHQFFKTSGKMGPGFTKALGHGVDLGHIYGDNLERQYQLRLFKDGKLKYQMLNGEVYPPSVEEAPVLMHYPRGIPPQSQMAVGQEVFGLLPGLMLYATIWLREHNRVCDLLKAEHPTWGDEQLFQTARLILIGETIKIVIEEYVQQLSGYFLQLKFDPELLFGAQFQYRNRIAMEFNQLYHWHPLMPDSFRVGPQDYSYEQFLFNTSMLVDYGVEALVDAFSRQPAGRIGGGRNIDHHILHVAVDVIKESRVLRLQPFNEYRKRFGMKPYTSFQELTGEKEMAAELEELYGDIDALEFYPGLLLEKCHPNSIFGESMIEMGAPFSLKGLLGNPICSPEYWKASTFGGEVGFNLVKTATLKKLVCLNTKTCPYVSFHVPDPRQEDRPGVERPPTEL

Row | ΔGexp (experimental binding free energy) (COX-1) [kcal/mol] | SMILES | percentage reduction of rat paw oedema ([1]; 1 h) [%] | percentage reduction of rat paw oedema ([1]; 2 h) [%] | percentage reduction of rat paw oedema ([1]; 4 h) [%]
1 | – | Cc1ccc(-c2cc(C(F)(F)F)nn2-c2ccc(S(N)(=O)=O)cc2)cc1 [Celecoxib] | 24.7 ± 2.2 | 31.4 ± 1.8 | 38.5 ± 1.7
2 | -11.0 | COc1ccc2c(c1)c(CC(=O)O)c(C)n2C(=O)c1ccc(Cl)cc1 [Indomethacin] | 23.3 ± 2.2 | 31.0 ± 3.0 | 37.4 ± 2.8
